# Measurements from ChEMBL document CHEMBL5046279, “Discovery of a Partial Glucokinase Activator Clinical Candidate: Diethyl ((3-(3-((5-(Azetidine-1-carbonyl)pyrazin-2-yl)oxy)-5-isopropoxybenzamido)-1H-pyrazol-1-yl)methyl)phosphonate (BMS-820132)” (J Med Chem, 2022).
# pEC50, pIC50: −log10 of the molar value.
# Tests used:
# [1] = AUC (0 to 24 hrs) in CD1 mouse at 5 mg/kg, po measured upto 24 hrs by LC-MS/MS analysis; type: ADME, organism-based; set-up: route oral, dose 5 mg/kg, time <=24; conditions: in vivo
# [2] = AUC (0 to 24 hrs) in cynomolgus monkey at 3 mg/kg, iv measured upto 24 hrs; type: ADME, organism-based, Macaca fascicularis; set-up: route intravenous, dose 3 mg/kg, time <=24; conditions: in vivo
# [3] = Aqueous solubility of the compound at pH 6.5 using amorphous form of sample; type: physicochemical; conditions: aqueous solution
# [4] = molecular target: Voltage-gated inwardly rectifying potassium channel KCNH2 (Homo sapiens, UniProt Q12809); assay: Inhibition of hERG by patch clamp method; type: toxicity
# [5] = Cmax in CD1 mouse at 5 mg/kg, po measured upto 24 hrs by LC-MS/MS analysis; type: ADME, organism-based; set-up: route oral, dose 5 mg/kg, time <=24; conditions: in vivo
# [6] = Cmax in Beagle dog at 3 mg/kg, po measured upto 24 hrs; type: ADME, organism-based, Canis lupus familiaris; set-up: route oral, dose 3 mg/kg, time <=24; conditions: in vivo
# [7] = Tmax in CD1 mouse at 5 mg/kg, po measured upto 24 hrs by LC-MS/MS analysis; type: ADME, organism-based; conditions: in vivo
# [8] = Tmax in Beagle dog at 3 mg/kg, po measured upto 24 hrs; type: ADME, organism-based, Canis lupus familiaris; conditions: in vivo
# [9] = Half life in CD1 mouse at 2.5 mg/kg, iv measured upto 24 hrs by LC-MS/MS analysis; type: ADME, organism-based; conditions: in vivo
# [10] = Half life in Beagle dog at 3 mg/kg, iv measured upto 24 hrs; type: ADME, organism-based, Canis lupus familiaris; conditions: in vivo
# [11] = Half life in cynomolgus monkey at 3 mg/kg, iv measured upto 24 hrs; type: ADME, organism-based, Macaca fascicularis; conditions: in vivo
# [12] = Volume of distribution at steady state in CD1 mouse at 2.5 mg/kg, iv measured upto 24 hrs by LC-MS/MS analysis; type: ADME, organism-based; conditions: in vivo, read-out: Vdss
# [13] = Volume of distribution at steady state in Beagle dog at 3 mg/kg, iv measured upto 24 hrs; type: ADME, organism-based, Canis lupus familiaris; conditions: in vivo, read-out: Vdss
# [14] = Volume of distribution at steady state in cynomolgus monkey at 3 mg/kg, iv measured upto 24 hrs; type: ADME, organism-based, Macaca fascicularis; conditions: in vivo, read-out: Vdss
# [15] = Systemic plasma clearance in cynomolgus monkey at 3 mg/kg, iv measured upto 24 hrs; type: ADME, organism-based, Macaca fascicularis
# [16] = Oral bioavailability in CD1 mouse at 5 mg/kg measured upto 24 hrs by LC-MS/MS analysis; type: ADME, organism-based; conditions: in vivo
# [17] = Oral bioavailability in Sprague-Dawley rat at 5 mg/kg measured upto 24 hrs by LC-MS/MS analysis; type: ADME, organism-based; conditions: in vivo
# [18] = Oral bioavailability in Beagle dog at 3 mg/kg measured upto 24 hrs; type: ADME, organism-based, Canis lupus familiaris; conditions: in vivo
# [19] = AUC (0 to 24 hrs) in Beagle dog at 3 mg/kg, iv measured upto 24 hrs; type: ADME, organism-based, Canis lupus familiaris; set-up: route intravenous, dose 3 mg/kg, time <=24; conditions: in vivo
# hERG (KCNH2) = hERG (KCNH2) (Homo sapiens, UniProt Q12809); assay: Inhibition of hERG channel at 30 uM by patch clamp assay relative to control; type: toxicity
# sodium channel [20] = assay: Inhibition of sodium channel (unknown origin) at 1 Hz at 10 uM by patch clamp assay relative to control; type: toxicity; conditions: human
# sodium channel [21] = assay: Inhibition of sodium channel (unknown origin) at 4 Hz at 10 uM by patch clamp assay relative to control; type: toxicity; conditions: human
# Salmonella typhimurium [22] = assay: Mutagenicity in Salmonella typhimurium TA100 at 5000 ug/plate in presence of S9 fraction by Ames test; type: toxicity, organism-based; conditions: salmonella enterica subsp. enterica serovar typhimurium, dose 5000 µg
# Salmonella typhimurium [23] = assay: Mutagenicity in Salmonella typhimurium TA100 at 5000 ug/plate in absence of S9 fraction by Ames test; type: toxicity, organism-based; conditions: salmonella enterica subsp. enterica serovar typhimurium; dose 5000 µg
# Salmonella typhimurium [24] = assay: Mutagenicity in Salmonella typhimurium TA1535 at 5000 ug/plate in presence of S9 fraction by Ames test; type: toxicity, organism-based; conditions: salmonella enterica subsp. enterica serovar typhimurium, dose 5000 µg
# Salmonella typhimurium [25] = assay: Mutagenicity in Salmonella typhimurium TA1535 at 5000 ug/plate in absence of S9 fraction by Ames test; type: toxicity, organism-based; conditions: salmonella enterica subsp. enterica serovar typhimurium; dose 5000 µg
# Salmonella typhimurium [26] = assay: Mutagenicity in Salmonella typhimurium TA1537 at 5000 ug/plate in presence of S9 fraction by Ames test; type: toxicity, organism-based; conditions: salmonella enterica subsp. enterica serovar typhimurium, dose 5000 µg
# Salmonella typhimurium [27] = assay: Mutagenicity in Salmonella typhimurium TA1537 at 5000 ug/plate in absence of S9 fraction by Ames test; type: toxicity, organism-based; conditions: salmonella enterica subsp. enterica serovar typhimurium; dose 5000 µg
# Escherichia coli = assay: Mutagenicity in Escherichia coli WP2 uvrA at 5000 ug/plate in presence of S9 fraction by Ames test; type: toxicity, organism-based; conditions: dose 5000 µg
# Hexokinase-4 = molecular target: T1, Hexokinase-4 (Mus musculus, UniProt P52792); assay: Activation of recombinant mouse full length liver glucokinase expressed in Escherichia coli incubated for 10 mins in presence of 12 mM glucose by plate reader analysis
# T1 sequence (P52792 whole entry): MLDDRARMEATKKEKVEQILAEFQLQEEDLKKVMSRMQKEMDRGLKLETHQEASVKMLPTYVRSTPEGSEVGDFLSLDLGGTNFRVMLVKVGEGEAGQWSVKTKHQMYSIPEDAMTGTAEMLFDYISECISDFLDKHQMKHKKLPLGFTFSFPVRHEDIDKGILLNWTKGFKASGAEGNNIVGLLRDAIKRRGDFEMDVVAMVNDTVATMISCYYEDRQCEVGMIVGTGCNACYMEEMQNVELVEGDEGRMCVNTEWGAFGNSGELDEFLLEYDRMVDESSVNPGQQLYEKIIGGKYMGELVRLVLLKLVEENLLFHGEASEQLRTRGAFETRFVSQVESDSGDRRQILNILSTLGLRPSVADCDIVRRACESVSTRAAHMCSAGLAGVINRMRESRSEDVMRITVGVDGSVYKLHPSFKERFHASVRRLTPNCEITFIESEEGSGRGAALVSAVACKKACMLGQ
# Mus musculus [28] = assay: Anti-hyperglycemic activity in C57BL/6J DIO mouse assessed as reduction in plasma glucose AUC at 10 umol/kg incubated for 120 mins by OGTT; type: functional; set-up: scale not given: the % may be the effect or the level left; conditions: dose 10 µM/Kg, 2 h, at 10 µmol/kg
# Mus musculus [29] = assay: Anti-hyperglycemic activity in C57BL/6J DIO mouse assessed as reduction in plasma glucose AUC at 1 umol/kg incubated for 120 mins by OGTT; type: functional; set-up: scale not given: the % may be the effect or the level left; conditions: dose 1 µM/Kg, 2 h, at 1 µmol/kg
# Mus musculus [30] = assay: Anti-hyperglycemic activity in C57BL/6J DIO mouse assessed as reduction in plasma glucose level at 30 umol/kg measured at 1 hr post dose on day 1 by OGTT; type: functional; set-up: scale not given: the % may be the effect or the level left; conditions: dose 30 µM/Kg, at 30 µmol/kg
# Mus musculus [31] = assay: Anti-hyperglycemic activity in C57BL/6J DIO mouse assessed as reduction in plasma glucose level at 30 umol/kg, po qd measured on day 14 by OGTT; type: functional; set-up: scale not given: the % may be the effect or the level left; conditions: dose 30 µM/Kg; time 24 hrs; at 30 µmol/kg
# Mus musculus [32] = assay: Anti-hyperglycemic activity in C57BL/6J DIO mouse assessed as reduction in plasma glucose level at 3 umol/kg measured after 14 days; type: functional; set-up: scale not given: the % may be the effect or the level left; conditions: dose 3 µM/Kg; time 14 day; at 3 µmol/kg
# Mus musculus [33] = assay: Anti-hyperglycemic activity in C57BL/6J DIO mouse assessed as reduction in plasma glucose AUC at 0.3 umol/kg incubated for 120 mins by OGTT; type: functional; set-up: scale not given: the % may be the effect or the level left; conditions: dose 0.3 µM/Kg, 2 h, at 0.3 µmol/kg
# Mus musculus [34] = assay: Anti-hyperglycemic activity in C57BL/6J DIO mouse assessed as reduction in plasma glucose AUC at 3 umol/kg incubated for 120 mins by OGTT; type: functional; set-up: scale not given: the % may be the effect or the level left; conditions: dose 3 µM/Kg, 2 h, at 3 µmol/kg
# [35] = Protein binding in mouse serum; type: ADME, cell-free; conditions: pooled result: one value given for 5 cell lines, strains, targets or settings, read-out: PB (converted)
# hERG (KCNH2), sequence (Q12809 whole entry): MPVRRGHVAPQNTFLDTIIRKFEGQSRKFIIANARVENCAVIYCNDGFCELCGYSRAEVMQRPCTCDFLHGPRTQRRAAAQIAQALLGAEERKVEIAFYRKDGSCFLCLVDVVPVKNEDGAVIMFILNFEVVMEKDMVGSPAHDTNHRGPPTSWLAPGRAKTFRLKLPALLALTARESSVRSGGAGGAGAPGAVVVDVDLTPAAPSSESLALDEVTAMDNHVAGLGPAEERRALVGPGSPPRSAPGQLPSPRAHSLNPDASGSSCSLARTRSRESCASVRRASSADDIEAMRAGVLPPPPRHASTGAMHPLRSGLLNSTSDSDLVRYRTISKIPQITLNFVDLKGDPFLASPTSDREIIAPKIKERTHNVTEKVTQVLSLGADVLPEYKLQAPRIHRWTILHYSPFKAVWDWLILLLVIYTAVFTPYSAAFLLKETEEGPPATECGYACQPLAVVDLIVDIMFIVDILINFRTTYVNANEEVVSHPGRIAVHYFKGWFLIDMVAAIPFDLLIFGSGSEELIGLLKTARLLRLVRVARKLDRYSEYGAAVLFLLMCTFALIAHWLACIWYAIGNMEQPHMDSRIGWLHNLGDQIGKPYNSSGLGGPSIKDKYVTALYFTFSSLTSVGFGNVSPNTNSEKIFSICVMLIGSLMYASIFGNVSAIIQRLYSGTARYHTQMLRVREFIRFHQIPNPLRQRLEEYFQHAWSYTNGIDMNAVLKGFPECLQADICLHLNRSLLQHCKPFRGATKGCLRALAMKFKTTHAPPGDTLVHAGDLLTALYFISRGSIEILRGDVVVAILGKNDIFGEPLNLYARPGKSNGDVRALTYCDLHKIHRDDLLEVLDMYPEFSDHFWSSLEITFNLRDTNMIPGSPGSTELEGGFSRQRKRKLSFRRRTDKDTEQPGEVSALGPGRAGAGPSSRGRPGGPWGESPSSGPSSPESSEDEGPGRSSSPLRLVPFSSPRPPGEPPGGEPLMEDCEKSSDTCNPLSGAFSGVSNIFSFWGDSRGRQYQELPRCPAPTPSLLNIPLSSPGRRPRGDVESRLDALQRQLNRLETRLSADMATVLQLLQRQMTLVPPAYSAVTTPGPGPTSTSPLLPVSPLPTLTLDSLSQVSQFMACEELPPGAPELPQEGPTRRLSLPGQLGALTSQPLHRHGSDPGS
# Voltage-gated inwardly rectifying potassium channel KCNH2, sequence (Q12809 whole entry): as above
smiles,measurement,setting,value
CCOP(=O)(Cn1ccc(NC(=O)c2cc(Oc3cnc(C(=O)N4CCC4)cn3)cc(OC(C)C)c2)n1)OCC,AUC(0-t),[1],49.7 µM·h
same,AUC(0-t),[2],3.8 µM·h
same,solubility,[3],10 µg/mL
same,pIC50,[4],< 4.10
same,Cmax,[5],14.1 µM
same,Cmax,[6],4.9 µM
same,Tmax,[7],0.5 h
same,Tmax,[8],0.8 h
same,half-life,[9],2.1 h
same,half-life,[10],1.8 h
same,half-life,[11],1.9 h
same,Vd,[12],0.3 L/kg
same,Vd,[13],0.5 L/kg
same,Vd,[14],1.1 L/kg
same,clearance,[15],22.7 mL/min/kg
same,bioavailability,[16],100%
same,bioavailability,[17],90%
same,bioavailability,[18],66%
same,AUC(0-t),[19],12.3 µM·h
same,inhibition at 30 µM,hERG (KCNH2),29%
same,inhibition at 10 µM,sodium channel [20],9%
same,inhibition at 10 µM,sodium channel [21],12%
same,Activity,Salmonella typhimurium [22],Non-Toxic
same,Activity,Salmonella typhimurium [23],Non-Toxic
same,Activity,Salmonella typhimurium [24],Non-Toxic
same,Activity,Salmonella typhimurium [25],Non-Toxic
same,Activity,Salmonella typhimurium [26],Non-Toxic
same,Activity,Salmonella typhimurium [27],Non-Toxic
same,Activity,Escherichia coli,Non-Toxic
same,pEC50,Hexokinase-4,7.49
same,Activity,Mus musculus [28],-62%
same,Activity,Mus musculus [29],-28%
same,Activity,Mus musculus [30],-46%
same,Activity,Mus musculus [31],-46%
same,Activity,Mus musculus [32],-48%
same,Activity,Mus musculus [33],-18%
same,Activity,Mus musculus [34],-50%
same,fraction unbound,[35],0.168
